One experiment relates to C. albicans ATCC 64550. The experiment can be described thus: MIC, CLSI M27 broth microdilution. Type of experiment: cell-based, Candida albicans. As to conditions: antifungal drugs; for MIC: Candida albicans, ATCC64550, geometric mean. The source says:
(§1) The fungal strains used in this study were C. albicans ATCC 10231, C. albicans ATCC 64550, C. parapsilosis ATCC 22019, C. tropicalis ATCC 750, C. tropicalis ATCC 200956 (resistant to azoles and AMB), C. glabrata LMDM 34 (resistant to echinocandins), C. metapsilosis MUM 15.12, C. orthopsilosis MUM 17.13, C. lusitaniae MUM 17.08, C. krusei ATCC 6258 (Issatchenkia orientalis ATCC 6258), and C. auris CDC B11903. Additionally, nine clinical isolates were included: C. parapsilosis Synlab 406 (FLC-resistant) and eight C. auris isolates identified by MALDI-TOF MS (Bruker Daltonics, Bremen, Germany) according to Zhao et al.. These yeasts were cultured on Sabouraud Dextrose Agar (SDA; Sigma-Aldrich, St. Louis, MO, USA) for 24 h at 35 °C.
(§2) Antifungal susceptibility testing was performed according to Clinical and Laboratory Standards Institute M27, 4th Edition (CLSI standard M27, 4th Edition). Some modifications were applied for evaluation of the antifungal activity of EOs and terpenes. Initially, a screening was carried out to determine the antifungal activity of the EOs and of commercial terpenes. Stock concentrations of EOs and terpenes were prepared at 512 µg/mL and an inoculum of 2.5 × 10^3 CFU/mL of each yeast was prepared in RPMI 1640-MOPS (Sigma- Aldrich St. Louis, MO, USA). Thereafter, 100 µL of each stock solution of EOs or terpenes was dispensed in 96-well microdilution plates (Corning®, Costar®, NY, USA) and 100 µL of each yeast inoculum was added. […] Microdilution plates were incubated at 35 °C and, after 24 h, the presence or absence of growth was visually checked using a manual mirror viewer and then compared with the amount of growth in the control (no EO or terpene). Compounds able to inhibit yeast growth were tested to determine the minimal inhibitory concentration (MIC) as follows: 100 µL of 10 two-fold dilutions of the EOs or commercial terpenes was dispensed in 96-well microplates and the yeast inoculum was added. Final concentrations of the EOs or terpenes ranged from 0.5 µg/mL to 256 µg/mL. Microdilution plates were incubated at 35 °C for 24 h. MICs were visually determined at the lowest concentration that produced visual inhibition compared to the growth control. The assays were performed at least three times in duplicate on different days. The results were expressed as geometric means (GM) and ranges. As an antifungal susceptibility testing control, the activity of ITC and AMB against the reference strains C. krusei ATCC 6258 and C. parapsilosis ATCC 22019 was evaluated in all experiments following the CLSI standard M27, 4th Edition. It was mandatory that the MIC values remained in the accepted range.
A general note: Dilution methods test growth across graded concentrations, often in twofold steps.

In experiment [1] the test system is C. tropicalis ATCC 200956. The experiment in a line: MIC, CLSI M27 broth microdilution. Format: cell-based, Candida tropicalis. As to conditions: C. tropicalis ATCC 200956; for MIC Range / MIC: antifungal drugs; for MIC: Candida tropicalis, ATCC200956, geometric mean, read-out: MIC GM. In a few lines:
(§3)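 Yeasts grown on SDA 24 h at 35 °C; inoculum 2.5 × 10^3 CFU/mL in RPMI 1640-MOPS. Ten two-fold dilutions of EOs or terpenes, final 0.5–256 µg/mL, incubated 24 h at 35 °C. MIC read visually as lowest concentration inhibiting growth versus control; geometric means of ≥3 duplicate runs.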

Another experiment deals with C. tropicalis ATCC 750. The experiment can be described thus: MIC, CLSI M27 broth microdilution. Format: cell-based, Candida tropicalis. As to conditions: antifungal drugs; for MIC: Candida tropicalis, ATCC750, geometric mean. In a few lines: as §3
For another experiment, the system named is C. glabrata LMDM 34. The experiment can be described thus: MIC, CLSI M27 broth microdilution. Type of experiment: cell-based, Candida glabrata. The following applies: antifungal drugs; for MIC: Nakaseomyces glabratus, LMDM34, geometric mean.
Text: as §1, §2

The test system of a further experiment is C. auris. The experiment in a line: MIC, CLSI M27 broth microdilution, several C. auris strains together. Format: cell-based, Candida auris. The following applies: C. auris Ca 41, Ca 45 and Ca 46 together.
Text: as §1
Antifungal susceptibility testing was performed according to Clinical and Laboratory Standards Institute M27, 4th Edition (CLSI standard M27, 4th Edition). […] MICs were visually determined at the lowest concentration that produced visual inhibition compared to the growth control. […] The results were expressed as geometric means (GM) and ranges. As an antifungal susceptibility testing control, the activity of ITC and AMB against the reference strains C. krusei ATCC 6258 and C. parapsilosis ATCC 22019 was evaluated in all experiments following the CLSI standard M27, 4th Edition. […]

In brackets after ≈: the same amount, converted by molar mass. Bounds are passed on as bounds.

A word on the MIC: it is the lowest concentration found to suppress growth.

In the case of `C[C@@H]1[C@H](O)[C@@H](C)/C=C/C=C/C=C/C=C/C=C/C=C/C=C/[C@H](O[C@@H]2O[C@H](C)[C@@H](O)[C@H](N)[C@@H]2O)C[C@@H]2O[C@](O)(C[C@@H](O)C[C@@H](O)[C@H](O)CC[C@@H](O)C[C@@H](O)CC(=O)O[C@H]1C)C[C@H](O)[C@H]2C(=O)O` [AMB, amphotericin B], the MIC in the experiment on C. albicans ATCC 64550 was 0.04 µg/mL (≈ 0.0433 µM); in experiment [1] it was 1.41 µg/mL (≈ 1.53 µM); against C. tropicalis ATCC 750, 0.11 µg/mL (≈ 0.119 µM); against C. glabrata LMDM 34, 0.06 µg/mL (≈ 0.0649 µM). For the same compound, the “MIC Range” value in the experiment with C. albicans ATCC 64550 is 0.03 to 0.12 µg/mL; in experiment [1], 1 to 2 µg/mL; against C. tropicalis ATCC 750 it was 0.06 to 0.12 µg/mL; against C. glabrata LMDM 34, 0.06 to 0.12 µg/mL; against C. auris, 1 to 2 µg/mL. In addition, the susceptibility category entry in experiment [1] (resistance confirmed) is given as “resistance”.

In the case of `OC(Cn1cncn1)(Cn1cncn1)c1ccc(F)cc1F` [FLC, fluconazole], the MIC with C. albicans ATCC 64550 was 5.6 µg/mL (≈ 18.3 µM); in experiment [1], greater than 64 µg/mL; in the experiment with C. tropicalis ATCC 750, 1.4 µg/mL (≈ 4.57 µM); against C. glabrata LMDM 34, 2.8 µg/mL (≈ 9.14 µM). Also, the “MIC Range” value with C. albicans ATCC 64550 is 4 to 8 µg/mL; in experiment [1], greater than 64 µg/mL; with C. tropicalis ATCC 750, 1 to 2 µg/mL; against C. glabrata LMDM 34, 2 to 4 µg/mL.

(Values after PMC9606955, “In Vitro Activity of Essential Oils Distilled from Colombian Plants against Candida auris and Other Candida Species with Different Antifungal Susceptibility Profiles” (Molecules, 2022).)
